Measured values from ChEMBL document CHEMBL3351842, “Synthesis and biological characterization of new aryloxyindole-4,9-diones as potent trypanosomicidal agents” (Bioorg Med Chem Lett, 2014).
pIC50: −log10 of the molar value.

Experiments:
[1] = tested on: Trypanosoma cruzi; assay: microbe, parasite or virus in culture; conditions: Y, J774, in Mus musculus, 120 h, read-out: GI
Description: Trypanocidal activity against Trypanosoma cruzi Y epimastigotes infected in mouse J774 cells assessed as growth inhibition of parasite at 5 uM measured on day 5

[2] = Selectivity index, ratio of IC50 for mouse J774A cells to IC50 for Trypanosoma cruzi Y epimastigotes; format: toxicity, cell-based; conditions: J774A cells versus Trypanosoma cruzi Y epimastigotes, read-out: Ratio IC50
[3] = tested on: Trypanosoma cruzi; assay: Trypanocidal activity against Trypanosoma cruzi Y epimastigotes […] assessed as growth inhibition of parasite measured on day 5; format: functional, organism-based; conditions: 120 h
[4] = tested on: J774; assay: Cytotoxicity against mouse J774 cells assessed as cell viability after 48 hrs by MTT assay; format: cell-based; conditions: J774, 48 h
[5] = tested on: Trypanosoma cruzi; assay: Trypanocidal activity against Trypanosoma cruzi Y epimastigotes […] assessed as growth inhibition of parasite at 10 uM measured on day 5; format: functional; conditions: 120 h, read-out: GI

SMILES	inhibition of growth at 5 µM [1] [%]	selectivity ratio [2]	pIC50 [3]	pIC50 [4]	inhibition of growth at 10 µM [5] [%]
CC1CS(=O)(=O)CCN1/N=C/c1ccc([N+](=O)[O-])o1 (configuration not stated) [NIFURTIMOX]	49.9	40	5.15	–	–
CCOC(=O)c1cc2c(n1CC)C(=O)C(Oc1ccc(OC)cc1)=CC2=O	–	625	7.70	4.90	90.5
CCOC(=O)c1cc2c(n1CC)C(=O)C(Oc1ccc(Cl)cc1)=CC2=O	–	–	6.89	–	94.6
CCOC(=O)c1cc2c(n1CC)C(=O)C(Oc1ccccc1C)=CC2=O	–	89.3	6.85	4.90	100
CCOC(=O)c1cc2c(n1CC)C(=O)C(Oc1ccccc1)=CC2=O	–	100	6.66	4.66	84.7
CCOC(=O)c1cc2c(n1CC)C(=O)C(Br)=CC2=O	–	–	6.28	–	97.1
CCOC(=O)c1cc2c(OC)cc(Br)c(OC)c2[nH]1	–	–	–	–	26.9
CCOC(=O)c1cc2c(n1CC)C(=O)C(Oc1ccc(C)cc1)=CC2=O	–	–	7.70	–	92.1
O=C1C=C(Oc2ccccc2)C(=O)c2ccccc21	–	250	7.30	4.90	87.2
CCOC(=O)c1cc2c(OC)cc(Br)c(OC)c2n1CC	–	–	–	–	2.9
